5 compounds from patent US5069812A, “Bleach/builder precursors” (priority 1990, dated 1991) can be followed below.

Molecules are shown by their SMILES.

A short description of data set [1]: Stain bleaching on tea-stained cotton (Terg-O-Tometer wash, reflectance change). As to conditions: 40° C., 15 minutes, BC1 cloth, pH = 9.0-9.5, [precursor] = 6.2 × 10^-4 M, [H2O2] = 6.25 × 10^-3 M; corrected for H2O2 and detergent alone. On the procedure:
Typically, cotton test pieces (4 in.×4 in.) stained with the tea are washed in a Terg-O-Tometer in 1 l. of aqueous solution containing a given level of bleach precursor, hydrogen peroxide, buffer, and surfactant (generally sodium dodecylbenzenesulfonate).
Washes are carried out at 40° C. for 15 minutes. Stain bleaching is measured reflectrometrically using a Colorgard System/05 Reflectometer. Bleaching is indicated by an increase in reflectance, reported as ΔR. In general a ΔR of one unit is perceivable in a paired comparison while ΔR of two units is perceivable monadically. In reporting the reflectance change, the change in reflectance caused by general detergency and bleaching by the excess hydrogen peroxide has been accounted for. Thus ΔR can actually be expressed as: ΔR=(the value of the Reflectance of stained fabric washed with precursor, H2 O2 and detergent minus the value of the Reflectance of stained fabric before washing) minus (the value of the Reflectance of stained fabric washed with H2 O2 and detergent alone minus the value of the Reflectance of stained fabric before washing).
The formulation of the detergent base used for the bleaching test is as follows: […]

Data set [2] can be described thus: Peracid generation from precursors (perhydrolysis yield). As to conditions: 40° C., [BPD] = 6.24 × 10^-4 M, [H2O2] = 6.24 × 10^-3 M. The method, then:
The precursors described herein can be used to generate peroxycarbonic acid bleaches in basic aqueous solution containing a source of hydrogen peroxide and, optimally, may contain typical detergent ingredients. […] The hydrogen peroxide source is added just prior to addition of the precursor. Ten milliliter aliquots of solution are withdrawn from the beaker at regular intervals and are added to a 250 ml titration flask containing crushed ice (150 g), glacial acetic acid (30 ml) and 4% aqueous potassium iodide (5 ml). After development for ten minutes with occasional agitation, the iodine produced is titrated with standard sodium thiosulfate solution. Time zero is taken as the point of introduction of precursor into the peroxyide solution. Precursor perhydrolysis experiments are generally carried out for a maximum of 15 minutes.
Since hydrogen peroxide itself contributes to the total active oxygen in these titrations, controls or "blanks" are obtained by carrying out a perhydrolysis experiment in the absence of precursor. These hydrogen peroxide blanks are subtracted from the total active oxygen titration in the presence of bleach precursor to give the level of active oxygen produced by precursor perhydrolysis.
Peroxycarbonic acid generation is determined at pH 8, 9, and 10. Borax buffer is used for experiments at pH 9 and 10 while phosphate buffer is employed for experiments carried out at pH 8. Adjustment of the buffer systems at 40° C. to the exact pH is carried out with 1M hydrochloric acid or sodium hydroxide solution.

Data set [3] is described as follows: Biodegradability (statement, no test described). As to conditions: chelidamic acid moiety.
Data set [4] can be described thus: Determination of calcium binding (Ca ion selective electrode titration). Format: physicochemical. The following applies: pH 10, 0.05 g/l solution, ionic strength 0.02-0.03M (NaCl), titrated with 0.02M CaCl2. On the procedure:
Calcium binding data was obtained at a pH of 10 by titrating 100 ml of 0.05 g/l precursor solution at an ionic strength of 0.02-0.03M (NaCl) with a 0.02M CaCl2 solution. A Radiometer calcium ion selective electrode was used to measure free Ca^++ ion concentration of the solutions. Data was corrected for dilution during each titration.

As for `O=C(Oc1cc(C(=O)O)nc(C(=O)O)c1)c1ccccc1.[Na].[Na]` [BPD, Disodium, 4-Benzoyloxy-2,6-Pyridinedicarboxylic Acid], in data set [1], the “Bleaching Performance Δ R” value was over 6.0. Also, the “Perhydrolysis yields from BPD (peroxycarbonic acid yield as a percent of theoretical), 1 minute” value in data set [2] (pH 10, 1 minute) is recorded as 91.35%. The “Perhydrolysis yields from BPD (peroxycarbonic acid yield as a percent of theoretical), 8 minutes” value in data set [2] (pH 10, 8 minutes) is 17.63%. Further, the “Perhydrolysis yields from BPD (peroxycarbonic acid yield as a percent of theoretical), 15 minutes” value in data set [2] (pH 10, 15 minutes) was found to be 0%.
Consider `O=C(Oc1cc(C(=O)O)nc(C(=O)O)c1)c1cccc(CCl)c1` [CBPD, Disodium, 4-(3-Chloromethyl)benzoyloxy-2,6-Pyridinedicarboxylic Acid], for which, in data set [1], the “Bleaching Performance Δ R” value is over 6.0.
Turning to `C[N+](C)(C)CCOC(=O)Oc1cc(C(=O)O)nc(C(=O)O)c1` [CCPD, Disodium, 4-Choline Carbonate-2,6-Pyridinedicarboxylic Acid], in data set [1], the “Bleaching Performance Δ R” value is listed as over 15.0.
Take `O=C(O)c1cc(O)cc(C(=O)O)n1` [Chelidamic Acid, 1,4-Dihydro-4-oxo-2,6-pyridine dicarboxylic acid]: the biodegradability entry in data set [3] is on record as “biodegradable”. Besides, the “Binding Constants Log KCa” value in data set [4] turned out to be 5.70.
Regarding `O=P(O)(O)OP(=O)(O)OP(=O)(O)O` [Sodium Tripolyphosphate], the “Binding Constants Log KCa” value in data set [4] was determined as 5.85.
